Here are results for nine compounds from paper PMC9962305, “A Highly Expressed Antennae Odorant-Binding Protein Involved in Recognition of Herbivore-Induced Plant Volatiles in Dastarcus helophoroides” (International Journal of Molecular Sciences, 2023).

One experiment has as its target recombinant DhelOBP5 (Dastarcus helophoroides, UniProt A0A1I9HZP1). Nature of the experiment: Fluorescence competitive binding assay (1-NPN probe). As to conditions: DhelOBP5, pH 7.4; for IC50: read-out: IC50, ligand concentration displacing 50% of the fluorescence intensity of the DhelOBPs/1-NPN complex. As for the experimental part:
(§1) Purified proteins were dissolved in 30 mM Tris-HCl buffer (pH 7.4 and 5.0), and emission fluorescence spectra were recorded on an RF-5301PC fluorescence spectrophotometer (Shimadzu, Kyoto, Japan) at room temperature in a right-angle configuration with a 1-cm light path quartz cuvette. To measure the affinity of the fluorescent probe 1-NPN with the target proteins, a […] solution of protein in 30 mM Tris-HCL (pH 7.4 and 5.0) was titrated with aliquots of 1 mM 1-NPN to final concentrations ranging from 0 to the approaching saturation. The probe 1-NPN was excited at 337 nm, and the emission spectra were recorded between 350 and 500 nm. The binding affinities of other ligands were measured using 1-NPN (2 μM) as the fluorescent probe with a stoichiometry of 1:1 (protein: probe), with the final concentration of each ligand ranging from 0 to 20 μM. All ligands, including 1-NPN were purchased from Sigma-Aldrich (St Louis, MO, USA) and TCI Shanghai (Shanghai, China) and dissolved in chromatogram class methanol (Aladdin, Shanghai, China).
(§2) The dissociation constants (Kd) of DhelOBPs with 1-NPN were calculated from Scatchard plots of the binding data using PRISM 8.0 software (GraphPad, La Jolla, CA, USA). Binding affinities (Ki) of DhelOBPs for each ligand were calculated based on the IC50 value (the initial fluorescence level of the competitor concentration reduced by half) using the equation: Ki=IC50/(1+1-NPN/K1-NPN) , where [1-NPN] is the free concentration of 1-NPN, and K1-NPN is the dissociation constant of the complex OBP/1-NPN. The analysis supposes that there is only one protein binding site, which is 100% active, and that the binding is reversible and at an equilibrium.

A further experiment has as its target recombinant DhelOBP4 (Dastarcus helophoroides, UniProt A0A1I9HZP6). Described as above. Particulars: for IC50: read-out: IC50, ligand concentration displacing 50% of the fluorescence intensity of the DhelOBPs/1-NPN complex; for Ki: calculated from IC50, read-out: Ki, dissociation constant. As to the method: as §1, §2
In the next experiment the target is recombinant DhelOBP14 (Dastarcus helophoroides, UniProt A0A1I9HZQ7). The description is as above. Particulars: DhelOBP14, pH 7.4; for IC50: read-out: IC50, ligand concentration displacing 50% of the fluorescence intensity of the DhelOBPs/1-NPN complex. As for the experimental part:
as §1, §2

The target in a further experiment is recombinant DhelOBP18 (Dastarcus helophoroides, UniProt A0A1I9HZQ8). The experiment is described as above. As to conditions: DhelOBP18, pH 7.4; for IC50: read-out: IC50, ligand concentration displacing 50% of the fluorescence intensity of the DhelOBPs/1-NPN complex. As for the experimental part: as §1, §2
recombinant DhelOBP18, sequence (A0A1I9HZQ8 entry or part of it): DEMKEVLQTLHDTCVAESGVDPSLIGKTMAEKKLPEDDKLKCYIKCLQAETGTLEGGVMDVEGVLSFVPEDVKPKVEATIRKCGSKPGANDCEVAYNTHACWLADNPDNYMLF
The next experiment concerns the target recombinant DhelOBP6 (Dastarcus helophoroides, UniProt A0A1I9HZP3). Described as above. Particulars: DhelOBP6, pH 7.4; Scatchard plot; read-out: dissociation constant (Kd) bound to 1-NPN. As for the experimental part: as §1, §2
A further experiment has as its target recombinant DhelOBP20 (Dastarcus helophoroides, UniProt A0A1I9HZP8). The description is as above. As to conditions: DhelOBP20, pH 7.4; for IC50: read-out: IC50, ligand concentration displacing 50% of the fluorescence intensity of the DhelOBPs/1-NPN complex. As for the experimental part: as §1, §2
For experiment [1], the system named is D. helophoroides adults injected with dsGFP or dsDhelOBP4. In words: RNAi-mediated Y-tube olfactometer bioassay. Format: in vivo, Dastarcus helophoroides. As for the experimental part:
(§3) Y-tube olfactometer experiments were conducted to evaluate the behavioral response to HIPVs with the best binding affinities in darkness at approximately 25 ± 1 °C. The central tube was 15 cm long, and the two branching arms, each linked to one vial, were 12 cm long with a 75° angle between them. Twenty microliters of each chemical that had been diluted 1000 times by volume were added to a 1 × 1 cm filter paper in one of the vials, and 20 μL of liquid paraffin were dropped on the same size filter paper in the second vial as the blank control. An effective choice was recorded when adults crawled at least 5 cm into the arm within 1 min and stayed 30 s at least. After every five individuals, the two arms were exchanged to avoid position effects. After testing 10 individuals, the Y-tube olfactometer was cleaned with absolute ethanol and oven-dried at 150 °C for 2 h. Fifty adult D. helophoroides were analyzed in each treated group. The results were analyzed using the chi-square test. 50 male and 50 female adults of D. helophoroides were chosen on day 1–4 after eclosion. The two treated groups were: dsGFP-injected and dsRNA-injected. dsGFP (250 ng) or dsRNA (250 ng) was respectively injected into the thorax internode of the adults with a microinjector (World Precision Instruments Inc., Sarasota, FL, USA) under a microscope. The RNAi efficiency was detected using a qRT-PCR for seven consecutive days. Following behavioral response was evaluated using the Y-tube olfactometer.

Another experiment concerns D. helophoroides adults. Nature of the experiment: Y-tube olfactometer bioassay. Format: in vivo, Dastarcus helophoroides. As to conditions: female and male adults, 20 μL of chemical diluted 1000 times vs liquid paraffin, chi-square test. As to the method:
as §3, with “test.” for “test. 50 male and 50 female adults of D. helophoroides were chosen on day 1–4 after eclosion. The two treated groups were: dsGFP-injected and dsRNA-injected. dsGFP (250 ng) or dsRNA (250 ng) was respectively injected into the thorax internode of the adults with a microinjector (World Precision Instruments Inc., Sarasota, FL, USA) under a microscope. The RNAi efficiency was detected using a qRT-PCR for seven consecutive days. Following behavioral response was evaluated using the Y-tube olfactometer.”

Setting [2] is: Scatchard plot, read-out: dissociation constant (Kd) bound to 1-NPN.
Where [3] appears, read: female adults after injection of dsDhelOBP4.
Setting [4] is: female and male adults after injection of dsGFP.
Setting [5] is: male adults after injection of dsDhelOBP4.

Entries after “also recorded” stand apart in the source; their conditions may differ. Like-named read-outs stand apart in the source and are kept apart here. Some results are limits rather than exact numbers.

recombinant DhelOBP5, sequence (A0A1I9HZP1 entry or part of it): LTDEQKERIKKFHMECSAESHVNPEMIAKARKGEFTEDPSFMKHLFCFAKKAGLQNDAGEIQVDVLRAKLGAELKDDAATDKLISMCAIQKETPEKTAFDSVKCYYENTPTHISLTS
recombinant DhelOBP14, sequence (A0A1I9HZQ7 entry or part of it): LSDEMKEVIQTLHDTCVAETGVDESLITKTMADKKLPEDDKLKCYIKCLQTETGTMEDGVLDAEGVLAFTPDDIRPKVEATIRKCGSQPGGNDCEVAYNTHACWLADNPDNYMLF
recombinant DhelOBP20, sequence (A0A1I9HZP8 entry or part of it): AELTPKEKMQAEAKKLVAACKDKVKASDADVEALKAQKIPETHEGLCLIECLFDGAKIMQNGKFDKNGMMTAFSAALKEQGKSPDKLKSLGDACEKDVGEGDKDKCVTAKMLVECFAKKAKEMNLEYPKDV
recombinant DhelOBP4, sequence (A0A1I9HZP6 entry or part of it): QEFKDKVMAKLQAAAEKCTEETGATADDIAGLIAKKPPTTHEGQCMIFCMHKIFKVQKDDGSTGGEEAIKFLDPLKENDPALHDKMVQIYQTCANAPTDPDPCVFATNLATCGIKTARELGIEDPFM
recombinant DhelOBP6, sequence (A0A1I9HZP3 entry or part of it): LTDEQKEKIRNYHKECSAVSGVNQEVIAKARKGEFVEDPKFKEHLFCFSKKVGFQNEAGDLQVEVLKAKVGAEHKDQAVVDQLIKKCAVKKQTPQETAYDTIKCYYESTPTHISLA

For orientation: Kd means the equilibrium constant for the complex coming apart. For the compound `c1ccc(Nc2cccc3ccccc23)cc1` [1-NPN, N-phenyl-1-naphthylamine, reference compound], the Kd at recombinant DhelOBP5 (setting [2]) came to 41 µM; at recombinant DhelOBP4 (DhelOBP4, pH 7.4, Scatchard plot, read-out: dissociation constant (Kd) bound to 1-NPN) it was 22.4 µM; on recombinant DhelOBP14 (setting [2]), 17.4 µM; at recombinant DhelOBP18 (setting [2]), 1.23 µM; on recombinant DhelOBP6, 120 µM; on recombinant DhelOBP20 (setting [2]) it was 5.13 µM.

`CC1=CC(=O)[C@H]2C[C@@H]1C2(C)C` [(-)-Verbenone]: the IC50 at recombinant DhelOBP5 is over 50 µM; on recombinant DhelOBP4 (DhelOBP4, pH 5.0), over 50 µM; on recombinant DhelOBP4 (DhelOBP4, pH 7.4), over 20 µM; at recombinant DhelOBP14, over 50 µM; on recombinant DhelOBP18 it was over 50 µM; on recombinant DhelOBP20, over 50 µM.

The Ki is a measure of affinity in units of concentration, obtained from inhibition or displacement. On to `CC12CCC(CC1=O)C2(C)C` (stereo not shown) [Camphor], for which the IC50 on recombinant DhelOBP5 is over 50 µM; on recombinant DhelOBP4 (DhelOBP4, pH 5.0), over 50 µM; at recombinant DhelOBP4 (DhelOBP4, pH 7.4) it was 18 ± 2.4 µM; at recombinant DhelOBP14 it was over 50 µM; at recombinant DhelOBP18, over 50 µM; at recombinant DhelOBP20 it was over 50 µM. Also, on recombinant DhelOBP4 (DhelOBP4, pH 7.4), the inhibitory constant (Ki) was 16.6 ± 2.2 µM.

For `CC12CCC(C1)C(C)(C)C2=O` (stereo not shown) [Fenchone], the IC50 on recombinant DhelOBP5 is over 50 µM; on recombinant DhelOBP4 (DhelOBP4, pH 5.0), over 20 µM; at recombinant DhelOBP4 (DhelOBP4, pH 7.4), over 20 µM; on recombinant DhelOBP14, over 50 µM; at recombinant DhelOBP18, over 50 µM; on recombinant DhelOBP20 it was over 50 µM.

Take `CC1=CCC(O)(C(C)C)CC1` (stereo not shown) [Terpinen-4-ol]: the IC50 is over 50 µM at recombinant DhelOBP5; over 50 µM at recombinant DhelOBP4 (DhelOBP4, pH 5.0); over 20 µM at recombinant DhelOBP4 (DhelOBP4, pH 7.4); over 50 µM at recombinant DhelOBP14; over 50 µM on recombinant DhelOBP18; over 50 µM at recombinant DhelOBP20.

As for `CC1=CCC(=C(C)C)CC1` [Terpinolene], the IC50 on recombinant DhelOBP5 was over 50 µM; at recombinant DhelOBP4 (DhelOBP4, pH 5.0), over 50 µM; on recombinant DhelOBP4 (DhelOBP4, pH 7.4), 15.7 ± 1.8 µM; on recombinant DhelOBP14 it was over 50 µM; at recombinant DhelOBP18, over 50 µM; on recombinant DhelOBP20, over 50 µM. The Ki at recombinant DhelOBP4 (DhelOBP4, pH 7.4) is 14.5 ± 1.7 µM.

Regarding `Cc1ccc(C(C)C)cc1` [p-Cymene], the IC50 is over 50 µM at recombinant DhelOBP5; over 50 µM on recombinant DhelOBP4 (DhelOBP4, pH 5.0); 13 ± 0.9 µM at recombinant DhelOBP4 (DhelOBP4, pH 7.4); over 50 µM at recombinant DhelOBP14; over 50 µM at recombinant DhelOBP18; over 50 µM at recombinant DhelOBP20. The Ki on recombinant DhelOBP4 (DhelOBP4, pH 7.4) was 12 ± 0.9 µM. Also, the entries for the “Behavioral response of D. helophoroides post-RNAi treatment” value in experiment [1] (setting [3]), in experiment [1] (setting [4]) and in experiment [1] (setting [5]) were “significantly avoidant effects; also recorded: significant repellent response”, “identically attractive effects” and “no behavioral effects; also recorded: did not elicit a behavioral response”, respectively. The “Behavioral response of D. helophoroides” value in the experiment with D. helophoroides adults is reported as “significantly attracted; also recorded: attractive effects”.

On to `CC1=CC[C@@H](C(C)(C)O)CC1` [α-Terpineol], for which the IC50 on recombinant DhelOBP5 is over 50 µM; on recombinant DhelOBP4 (DhelOBP4, pH 5.0) it was over 50 µM; on recombinant DhelOBP4 (DhelOBP4, pH 7.4), 10.4 ± 0.1 µM; on recombinant DhelOBP14, over 50 µM; on recombinant DhelOBP18, over 50 µM; on recombinant DhelOBP20, over 50 µM. On recombinant DhelOBP4 (DhelOBP4, pH 7.4), the Ki was 9.6 ± 0.1 µM. The “Behavioral response of D. helophoroides” value in the experiment with D. helophoroides adults is listed as “no behavioral effects”; in the experiment with D. helophoroides adults (listed as α-terpineol), “did not elicit a behavioral response”.

`CC1=CCC(C(C)C)=CC1` [γ-Terpinene]: the IC50 on recombinant DhelOBP5 was over 50 µM; at recombinant DhelOBP4 (DhelOBP4, pH 5.0), over 50 µM; on recombinant DhelOBP4 (DhelOBP4, pH 7.4), 11 ± 0.3 µM; at recombinant DhelOBP14 it was over 50 µM; at recombinant DhelOBP18 it was over 50 µM; at recombinant DhelOBP20 it was over 50 µM. In addition, the Ki on recombinant DhelOBP4 (DhelOBP4, pH 7.4) is 10.1 ± 0.3 µM. Moreover, the “Behavioral response of D. helophoroides post-RNAi treatment” value was “significantly avoidant effects; also recorded: significant repellent response” in experiment [1] (setting [3]), “identically attractive effects” in experiment [1] (setting [4]) and “no behavioral effects; also recorded: did not elicit a behavioral response” in experiment [1] (setting [5]). Also, the figures for the “Behavioral response of D. helophoroides” value with D. helophoroides adults and with D. helophoroides adults (listed as γ-terpinene) were “attractive effects” and “significantly attracted”, respectively.
